Laboratory results reported in patent publication US20060252707A1, “Pharmaceutical composition for the treatment and/or the prevention of atherosclerosis from infectious origin” (UNIVERSITE DE LIEGE, priority 2003, published 2006).
Entries after “also recorded” stand apart in the source; their conditions may differ.

Experiments:
[1] = test system: THP-1 cells conditioned with Chlamydia pneumoniae; assay: Oxidant activity (ethylene production from KMB, gas liquid chromatography) of THP-1 cells conditioned with Chlamydia pneumoniae, then stimulated by PMA; format: cell-based, human; conditions: for Ethylene: % of THP-1 + Chlamydia
Method: This model has been described in details in Mouithys Mickalad et al. (Biochem Biophys Res Comm 2001, 287: 781-788). Treatment of the Cells with Chlamydia pneumoniae:
The monocytes (in multiwell plates, 2×10^6 cells/well) are conditioned by a pre-incubation of 19 hours with elementary bodies of Chlamydia pneumoniae (at a dose equivalent to a mean endotoxin concentration of 3.3 pg). The elementary bodies are obtained by Chlamydia culture in MacCoy cells (American Type Culture Collection, Rockville, USA).
After incubation with C. pneumoniae, the cells are washed and detached from the wells; they are put in sterile vials and an oxidable substrate, α-keto-methyl butyric acid (KMB) at 10^−3 M, is added. The vial is sealed and the following reagents are added by needle puncture. through the septum: 200 U horseradish peroxidase (HRP) and 10^−7 M phorbol myristate acetate (PMA).
PMA is a monocyte activator, enhancing the superoxide anion production by these cells. Superoxide anion dismutates into hydrogen peroxide (H2O2), which is used by HRP to form more oxidant species, able to oxidize KMB, releasing ethylene. After 3 hours of incubation at 37° C, ethylene, which has accumulated in the gaseous phase of the sealed vial is measured by gas liquid chromatography, on a Porapak T column (TM) equipped with flame ionisation detector. These assays can be made with the prior addition of a reagent able to inhibit or to stimulate the monocytes, the reagent being added, either at pre-incubation (at the same time as the Chlamydia EB), or at the moment of PMA activation.

[2] = Dunnick et al.; cited from earlier work
[3] = test system: superoxide anion; assay: EPR spin-trapping of superoxide anion produced by Chlamydia-conditioned, PMA stimulated THP-1 cells; format: cell-based, human; conditions: 10 μM DPI; FIG. 5 lines I-5 and II-4; PMA 5×10^−7 M
From the text: Monocytes are conditioned by Chlamydia. The formation of this species was monitored by electron paramagnetic resonance, using spin-trapping agents.

[4] = test system: THP-1 cells; assay: Microscopy of monocyte transformation into macrophages under Chlamydia pneumoniae; format: cell-based, human
Method: Incubation of THP-1 cells with C. pneumoniae induces the differentiation of monocytes (round floating cells, […] diameter; FIG. 1, 1) into macrophages, amiboid cells, which are larger than monocytes (30-50 μm diameter) and adhere to the support (FIGS. 1,2). Monocytes are stained with Giemsa and May-Grunwald stains (Merck, Germany) (Chemical methods of medical investigation, 1964, 10th edition by E. Merck AG. Darmstadt, Germany) and macrophages are observed by phase contrast microscopy.

[5] = test system: THP-1 cell line; assay: Model of foam cell formation from THP-1 monocytes (Chlamydia pneumoniae, then LDL or liposomes, Oil Red O); format: cell-based, human; conditions: 10^−5 M; LDL
Method: A model of foam cell formation from monocytes (THP-1 cell line) was developed. The cells are incubated for 19 hours with Chlamydia pneumoniae. This incubation is followed by the addition of human LDL or liposomes, and another incubation period of 48 hours. At the end of this second period of incubation, the cells are fixed and stained with oil Red O (Sigma, Belgium) (Smirnova et al., 2004, Am J Physiol Heart Circ Physiol. March 11 (Epub ahead of print) to highlight the foam cells. When drugs are used in this model, they are added at the same time as the LDL or liposomes. LDL are prepared from human blood drawn on EDTA. They are isolated by sequential flotation centrifugation with increased concentrations of KBr. After their isolation, LDL are dialysed, sterilised by filtration and their purity is confirmed by electrophoresis. Liposomes are lipid vesicles prepared by extrusion with cholesterol esters and phospholipids, mimicking lipoproteins.

[6] = test system: nuclear transcription factor kappaB (NF-κB); assay: Activation of NF-κB (binding to DNA) by electrophoretic mobility shift assay in THP-1 cells pre-incubated with Chlamydia; format: cell-based, human; conditions: THP-1 + Chlamydia, % of THP-1 without preincubation with C pneumoniae (FIG. 7)
Method: FIG. 7 represents the effects of pre-incubation with Chlamydia on the activity of the nuclear transcription factor kappaB (NF-kB) (column 2). NF-kB is expressed in % of column 1 (THP-1 cells without preincubation with C pneumoniae)
The activation of NF-κB was measured by the technique of <<electrophoretic mobility shift assay>> (EMSA) (Schoonbroodt et al., 2000, J Immunol. 164: 4292-4300; Nys et al., 2003, Nitric Oxide 9: 33-43) (FIG. 7). The activation of NF-κB is expressed in % of control cells (cells which have not been pre-incubated with Chlamydia) (column 1). The incubation of monocytes with C. pneumoniae activates the NF-κB binding to DNA (FIG. 7, column 2).

[7] = drug added at cell conditioning with Chlamydia (pre-incubation 19 hours), then PMA 10^−7 M
[8] = not pre-incubated, added directly before the stimulation by PMA

For `CC(=O)c1ccc2c(c1)N(CCCN(C)C)c1ccccc1S2` [acepromazine], which “effect on oxidant activity / oxidation rate” value [1, 7] is on record?
Its value is “little or no effect”.

With `COc1cc(C(C)=O)ccc1O` [apocyanine, apocynine] as the compound, how does the “effect on oxidant activity / oxidation rate” value [1, 7] read?
Its value is “little or no effect”.

Which results are given for `O=c1c(O)c(-c2ccc(O)c(O)c2)oc2cc(O)cc(O)c12` [Quercetin, quercetin]?
effect on oxidant activity / oxidation rate ([1]; 10^−4 M, pre-incubated with Chlamydia): active; also recorded: inhibitor; Ethylene ([1]; FIG. 12, 10^−4 M incubated together with Chlamydia): 2.0%; Ethylene ([1]; FIG. 12, 10^−4 M not incubated (added just before PMA)): 3.7%; Ethylene ([1]; FIG. 12, 10^−5 M incubated together with Chlamydia): 100.0%; Ethylene ([1]; FIG. 12, 10^−5 M not incubated (added just before PMA)): 1.2%; Ethylene ([1]; FIG. 12, 10^−6 M incubated together with Chlamydia): 131.0%; Ethylene ([1]; FIG. 12, 10^−6 M not incubated (added just before PMA)): 6.6%; effect on ethylene production [1, 8]: quite completely inhibit the ethylene production; concentrations at which toxicity does not exist [2]: ≤ 10^−4 M

For `c1ccc([I+]c2ccccc2)cc1` [DPI, diphenyl iodonium], which “effect on ethylene production” value ([1]; DPI 5 μM, FIG. 3 column 7, PMA 10^−7 M) is on record?
Its value is “inhibits almost totally”.

What about the “effect on EPR signal of superoxide anion” value [3] of the same compound?
Its value is “suppresses”.

With `Oc1cc(O)cc(C=Cc2ccc(O)c(O)c2)c1` [piceatanol, 3,4,3′,5′tetrahydrostilbene] as the compound, how does the Ethylene ([1]; FIG. 20, drug alone 10^−4 M, pre-incubation with Chlamydia) read?
The Ethylene was 0.4%.

What about the Ethylene ([1]; FIG. 20, drug alone 10^−5 M, pre-incubation with Chlamydia) of the same compound?
Its Ethylene is 57.0%.

Which results are given for `CC/C(=C(/CC)c1ccc(O)cc1)c1ccc(O)cc1` [bertrol, trans-α-α-diethyl-p,p′-stilbenediol]?
Ethylene ([1]; FIG. 21, drug alone 10^−4 M, pre-incubation with Chlamydia): 1.6%; Ethylene ([1]; FIG. 21, drug alone 10^−5 M, pre-incubation with Chlamydia): 32.0%

With `C[C@]12CC[C@@H]3c4ccc(O)cc4CC[C@H]3[C@@H]1CC[C@@H]2O` [estradiol] as the compound, how does the Ethylene ([1]; FIG. 10, 10^−4 M not pre-incubated (added just before PMA)) read?
The Ethylene was 2.6%.

What about the Ethylene ([1]; FIG. 10, 10^−4 M pre-incubated with Chlamydia) of the same compound?
The Ethylene was 140.0%.

What about the Ethylene ([1]; FIG. 10, 10^−5 M not pre-incubated (added just before PMA)) of the same compound?
The Ethylene was 2.9%.

And the Ethylene ([1]; FIG. 10, 10^−5 M pre-incubated with Chlamydia)?
The Ethylene was 133.0%.

What about the Ethylene ([1]; FIG. 10, 10^−6 M not pre-incubated (added just before PMA)) of the same compound?
The Ethylene was 7.8%.

What about the Ethylene ([1]; FIG. 10, 10^−6 M pre-incubated with Chlamydia) of the same compound?
Its Ethylene is 85.0%.

For tocopherol, which Ethylene ([1]; FIG. 11 column 4, 10^−4 M pre-incubated) is on record?
The Ethylene was 147.0%.

What about the Ethylene ([1]; FIG. 11 column 5, 10^−6 M pre-incubated (so in the source)) of the same compound?
The Ethylene was 133.0%.

And the Ethylene ([1]; FIG. 11 column 6, 10^−6 M pre-incubated)?
Its Ethylene is 87.0%.

What about the Ethylene ([1]; FIG. 11 column 7, 10^−4 M not pre-incubated (added just before PMA)) of the same compound?
Its Ethylene is 2.4%.

What about the Ethylene ([1]; FIG. 11 column 8, 10^−5 M not pre-incubated (added just before PMA)) of the same compound?
The Ethylene was 2.5%.

What about the Ethylene ([1]; FIG. 11 column 9, 10^−6 M not pre-incubated (added just before PMA)) of the same compound?
The Ethylene was 77.0%.

And the “effect on oxidant activity / oxidation rate” value [1, 7]?
Its value is “favouring the oxidation rate”.

And the “effect on oxidant activity / oxidation rate” value ([1]; drug added at cell conditioning with Chlamydia (pre-incubation 19 hours), then PMA 10^−7 M, listed as vitamin E (tocopherol))?
The value was “little or no effect”.

And the “effect on ethylene production” value [1, 8]?
Its value is “quite completely inhibit the ethylene production”.

For `Oc1ccc(/C=C/c2ccccc2)cc1` [trans-4-stilbene, trans-4-hydrostilbene], which Ethylene ([1]; FIG. 22, drug alone 10^−4 M, pre-incubation with Chlamydia) is on record?
The Ethylene was 1.8%.

What about the Ethylene ([1]; FIG. 22, drug alone 10^−5 M, pre-incubation with Chlamydia) of the same compound?
Its Ethylene is 14.0%.

What does the source list for `Oc1ccc(/C=C/c2cc(O)cc(O)c2)cc1` [Resveratrol, trans-reveratrol]?
Ethylene ([1]; FIG. 19, drug alone 10^−4 M, pre-incubation with Chlamydia): 18.3%; Ethylene ([1]; FIG. 19, drug alone 10^−5 M, pre-incubation with Chlamydia): 35.8%; effect on oxidant activity / oxidation rate [1, 7]: reduces the oxidizing activity of THP-1 cells; effect on ethylene production [1, 8]: inhibiting capacity is still more marked; inhibition of the monocyte transformation into macrophages ([4]; at 10^−4 M): nearly complete; inhibition of the monocyte transformation into macrophages ([4]; at 10^−5 M): partial; effect on transformation into foam cells [5]: completely inhibits

For `C[C@H]1C[C@@H]2[C@H]([C@@H](O)C[C@@]3(C)[C@H]2CC[C@]3(O)C(=O)CO)[C@@]2(C)C=CC(=O)C=C12` [MPL, methylprednisolone], which “NF-κB relative value (%)” value ([6]; 10^−5 M) is on record?
Its value is 417%.

And the “NF-κB relative value (%)” value ([6]; 10^−6 M)?
Its value is 450%.
